Assay results reported in patent publication US10799501B2, “Combination of an inhibitor of PARP with an inhibitor of GSK-3 or DOT1L” (King's College London, priority 2015, dated 2020).

Tested on: THP1 (MLL-AF9)
Experiment: In vitro drug treatment of human leukemic cell line THP1
Format: cell-based
Protocol: NB4-LR2 and THP1 cell lines (kindly provided by Dr Arthur Zelent and Professor Mel Greaves respectively) were cultured in RPMI (Invitrogen) supplemented with 10% selected FBS (R10), 2 mM L-Glutamine. Kasumi cell line (kindly provided by Dr Olaf Heidenreich) was cultured in RPMI-Hepes modified (Sigma) supplemented with 20% selected FBS and 2 mM L-[…]). Cell lines were validated by qPCR for their respective oncogenes. NIH3T3 and GP2 cell line was cultured in DMEM (Invitrogen) supplemented with 10% selected FBS and 2 mM L-Glutamine. Human primary AML cells were cultured in IMEM (Invitrogen) supplemented with […], 2 mM L-Glutamine, 10 ng/mL each of human cytokines, IL3, IL6, SCF, FLT3 ligand, and TPO. Cells were kept at 37° C. and 5% CO2. Use of human primary cells was approved by King's College London committee and consents of the patients were obtained. […] Colonies were scored 6-7 days after plating. For other in vitro studies, mouse leukemic cells and primary AML cell lines were subjected to continuously Olaparib (1 μM) or LiCl (8 mM) treatment in liquid culture for whole duration as indicated in the figures or figure legends. For human leukemic cell lines, experiments were performed as described above with 5 μM Olaparib. For each assay 1×10^5 cells were collected, washed in PBS and re-suspended in Annexin V binding solution (25 mM Hepes, 140 mM KCl, 2.5 mM CaCl2 pH 7.2). After centrifugation at 500 g for five minutes the cells were incubated with the Annexin V Binding solution containing 0.25 ug/ml mouse anti Annexin V-FITC antibody (Biolegend 640906) and 1 ug/ml propidium iodide in the dark for 30 minutes at 4° C. Samples were then washed in PBS analysed at the FACS LSRII (BD Biosciences Pharmingen) with FACS Diva. Cells were cytospun onto a glass slide at 400 g for 5 minutes and then fixed for 10 minutes with 2% formaldehyde/0.2% glutaraldehyde (Sigma Aldrich). […] Cells were counted in at least 5 fields for each slide, for a total of over 100 cells. The percentage of senescent cells was calculated by the percentage of the number of blue cell in the field.

O=C(c1cc(Cc2n[nH]c(=O)c3ccccc23)ccc1F)N1CCN(C(=O)C2CC2)CC1 [Olaparib, 4-[(3-[(4-cyclopropylcarbonyl)piperazin-4-yl]carbonyl)-4-fluorophenyl]methyl(2H)-phthalazin-1-one]
growth (relative proliferation) and differentiation (counted on day 5 by trypan blue exclusion): ineffective
colony forming ability (methylcellulose 7 days, 5 μM Olaparib): did not affect
